pEC50, pIC50: −log10 of the molar value.

The target of test [1] is interaction between PD-1 and PD-L1 (Homo sapiens (Human), UniProt Q9NZQ7). As to the kind of experiment: PD1-PDL1 HTRF binding activity test (Cisbio PD-1/PD-L1 binding assay kit). Conditions: read-out: PD1-PDL1 HTRF Binding Activity IC50.
Test [2] addresses interaction between PD-1 and PD-L1 expressed on cell surfaces (Homo sapiens (Human), UniProt Q9NZQ7). Kind of test: Jurkat reporter gene cellular assay (Jurkat/NF-κB-luc/PD1 cells cocultured with Raji-PD-L1 cells, OKT-3 stimulation). The test is classed as cell-based. Conditions: NF-κB-luc reporter activation fold, 6 hrs; read-out: Cell Activity EC50. In a few lines:
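Jurkat cells stably expressing human PD-1 and NF-κB-luciferase were cocultured with Raji cells stably expressing human PD-L1 under OKT-3 stimulation, with compound present. Luminescence was read after 6 h.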

Chain of interaction between PD-1 and PD-L1 (Q9NZQ7 19-238): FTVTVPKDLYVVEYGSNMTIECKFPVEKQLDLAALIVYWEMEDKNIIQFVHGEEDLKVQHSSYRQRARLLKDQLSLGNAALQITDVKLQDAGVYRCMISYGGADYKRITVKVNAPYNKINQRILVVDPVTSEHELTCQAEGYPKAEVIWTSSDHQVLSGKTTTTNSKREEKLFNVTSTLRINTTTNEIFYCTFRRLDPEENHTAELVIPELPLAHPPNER
Chain of interaction between PD-1 and PD-L1 expressed on cell surfaces (Q9NZQ7 19-290): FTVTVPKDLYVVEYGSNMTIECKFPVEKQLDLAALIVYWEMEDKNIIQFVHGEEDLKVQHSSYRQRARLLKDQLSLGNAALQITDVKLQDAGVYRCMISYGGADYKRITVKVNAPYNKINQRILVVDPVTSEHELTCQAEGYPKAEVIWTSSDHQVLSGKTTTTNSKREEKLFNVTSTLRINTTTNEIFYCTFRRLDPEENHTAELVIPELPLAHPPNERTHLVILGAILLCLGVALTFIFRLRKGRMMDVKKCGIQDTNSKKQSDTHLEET

As to `Cc1c(NC(=O)c2cc(C3CC3)c(CNC(CO)CO)cn2)cccc1-c1cccc(NC(=O)c2cc(C3CC3)c(CNC(CO)CO)cn2)c1C` [Example 92, N,N′-(2,2′-dimethyl-[1,1′-biphenyl]-3,3′-diyl)bis(4-cyclopropyl-5-(((1,3-dihydroxypropan-2-yl)amino)methyl)picolinamide)], the pIC50 in test [1] is 9.06. Besides, in test [2], the pEC50 was 7.26.
For `CC(=O)NCCNCc1cnc(C(=O)Nc2cccc(-c3cccc(NC(=O)c4cc(C5CC5)c(CNCCNC(C)=O)cn4)c3C)c2C)cc1C1CC1` [Example 93, N,N'-(2,2′-dimethyl-[1,1′-biphenyl]-3,3′-diyl)bis(5-(((2-acetamidoethyl)amino)methyl)-4-cyclopropylpicolinamide)] the same measures were 8.83 and 6.98.
`Cc1c(NC(=O)c2cc(C3CC3)c(CNCC3(O)CC3)cn2)cccc1-c1cccc(NC(=O)c2cc(C3CC3)c(CNCC3(O)CC3)cn2)c1C` [Example 94, N,N'-(2,2′-dimethyl-[1,1′-biphenyl]-3,3′-diyl)bis(4-cyclopropyl-5-((((1-hydroxycyclopropyl)methyl)amino)methyl)picolinamide)]: the negative logarithm of the IC50 (pIC50) in test [1] was 8.32. The negative logarithm of the EC50 (pEC50) in test [2] was 6.25.
For `Cc1c(NC(=O)c2cc(C3CC3)c(CN[C@H](C)CO)cn2)cccc1-c1cccc(NC(=O)c2cc(C3CC3)c(CN[C@H](C)CO)cn2)c1C` [Example 95, N,N'-(2,2′-dimethyl-[1,1′-biphenyl]-3,3′-diyl)bis(4-cyclopropyl-5-((((R)-1-hydroxypropan-2-yl)amino)methyl)picolinamide)] the same measures were 8.69 and 6.90.
Turning to `Cc1c(NC(=O)c2cc(C3CC3)c(CN[C@@H](C)CO)cn2)cccc1-c1cccc(NC(=O)c2cc(C3CC3)c(CN[C@@H](C)CO)cn2)c1C` [Example 96, N,N'-(2,2′-dimethyl-[1,1′-biphenyl]-3,3′-diyl)bis(4-cyclopropyl-5-((((S)-1-hydroxypropan-2-yl)amino)methyl)picolinamide)], in test [1], the pIC50 was 8.84. Further, the pEC50 in test [2] was 7.06.
Take `Cc1c(NC(=O)c2cc(C3CC3)c(CNC3CCC[C@@H]3O)cn2)cccc1-c1cccc(NC(=O)c2cc(C3CC3)c(CN[C@H]3CCC[C@@H]3O)cn2)c1C` (some centres unmarked) [Example 97]: in test [1], the pIC50 is 8.47. Besides, the pEC50 in test [2] is 6.66.
For `Cc1c(NC(=O)c2cc(C3CC3)c(CN3CC(O)C3)cn2)cccc1-c1cccc(NC(=O)c2cc(C3CC3)c(CN3CC(O)C3)cn2)c1C` [Example 98, N,N′-(2,2′-dimethyl-[1,1′-biphenyl]-3,3′-diyl)bis(4-cyclopropyl-5-((3-hydroxyazetidin-1-yl)methyl)picolinamide)], the negative logarithm of the IC50 (pIC50) in test [1] is 8.42. Further, the pEC50 in test [2] was 6.62.
On to `Cc1c(NC(=O)c2cc(C3CC3)c(CN3CC(C)(O)C3)cn2)cccc1-c1cccc(NC(=O)c2cc(C3CC3)c(CN3CC(C)(O)C3)cn2)c1C` [Example 99, N,N′-(2,2′-dimethyl-[1,1′-biphenyl]-3,3′-diyl)bis(4-cyclopropyl-5-((3-hydroxy-3-methylazetidin-1-yl)methyl)picolinamide)], for which, in test [1], the pIC50 was 8.84. Also, the negative logarithm of the EC50 (pEC50) in test [2] was 6.59.
For `Cc1c(NC(=O)c2cc(C3CC3)c(CN3CC[C@@H](O)C3)cn2)cccc1-c1cccc(NC(=O)c2cc(C3CC3)c(CN3CC[C@@H](O)C3)cn2)c1C` [Example 100] the same measures were 8.82 and 6.91.
Turning to `Cc1c(NC(=O)c2cc(C3CC3)c(CN3CC[C@H](O)C3)cn2)cccc1-c1cccc(NC(=O)c2cc(C3CC3)c(CN3CC[C@H](O)C3)cn2)c1C` [Example 101, N,N′-(2,2′-dimethyl-[1,1′-biphenyl]-3,3′-diyl)bis(4-cyclopropyl-5-(((S)-3-hydroxypyrrolidin-1-yl)methyl)picolinamide)], the negative logarithm of the IC50 (pIC50) in test [1] was 8.96. In addition, the negative-log EC50 (pEC50) in test [2] was 6.57.
For `Cc1c(NC(=O)c2cc(C3CC3)c(CN3CCC(O)CC3)cn2)cccc1-c1cccc(NC(=O)c2cc(C3CC3)c(CN3CCC(O)CC3)cn2)c1C` [Example 102, N,N′-(2,2′-dimethyl-[1,1′-biphenyl]-3,3′-diyl)bis(4-cyclopropyl-5-((4-hydroxypiperidin-1-yl)methyl)picolinamide)] the same measures were 8.44 and 6.71.
Taken in the same sequence, the figures for `Cc1c(NC(=O)c2cc(C3CC3)c(CNC3CC(O)C3)cn2)cccc1-c1cccc(NC(=O)c2cc(C3CC3)c(CN[C@H]3C[C@@H](O)C3)cn2)c1C` (some centres unmarked) [Example 103, N,N′-(2,2′-dimethyl-[1,1′-biphenyl]-3,3′-diyl)bis(4-cyclopropyl-5-((((1s,3s)-3-hydroxycyclobutyl)amino)methyl)picolinamide)] were 8.39 and 6.69.
For the compound `Cc1c(NC(=O)c2cc(C3CC3)c(CN[C@H](CO)C(=O)O)cn2)cccc1-c1cccc(NC(=O)c2cc(C3CC3)c(CN[C@H](CO)C(=O)O)cn2)c1C` [Example 105], the pIC50 in test [1] was 9.57. In addition, in test [2], the pEC50 is 7.85.
Taken in the same sequence, the figures for `CCOC(=O)[C@@H](CO)NCc1cnc(C(=O)Nc2cccc(-c3cccc(NC(=O)c4cc(C5CC5)c(CN[C@H](CO)C(=O)OCC)cn4)c3C)c2C)cc1C1CC1` [Example 106, diethyl 2,2′-((((((2,2′-dimethyl-[1,1′-biphenyl]-3,3′-diyl)bis(azanediyl))bis (carbonyl))bis(4-cyclopropylpyridine-6,3-diyl))bis(methylene))bis(azanediyl)) (2R,2′R)-bis(3-hydroxypropanoate)] were 7.65 and 5.90.
For `CCOC(=O)[C@H](CO)NCc1cnc(C(=O)Nc2cccc(-c3cccc(NC(=O)c4cc(C5CC5)c(CN[C@@H](CO)C(=O)OCC)cn4)c3C)c2C)cc1C1CC1` [Example 107, diethyl 2,2′-((((((2,2′-dimethyl-[1,1′-biphenyl]-3,3′-diyl)bis(azanediyl))bis(carbonyl))bis(4-cyclopropylpyridine-6,3-diyl))bis (methylene))bis(azanediyl))(2S,2′S)-bis (3-hydroxypropanoate)] the same measures were 7.82 and 6.12.
For `Cc1c(NC(=O)c2cc(C3CC3)c(CN[C@@H](CO)C(=O)O)cn2)cccc1-c1cccc(NC(=O)c2cc(C3CC3)c(CN[C@@H](CO)C(=O)O)cn2)c1C` [Example 108, (2S,2′S)-2,2′-((((((2,2′-dimethyl-[1,1′-biphenyl]-3,3′-diyl)bis(azanediyl))bis(carbonyl))bis(4-cyclopropylpyridine-6,3-diyl))bis(methylene))bis(azanediyl)) bis(3-hydroxypropanoic acid)] the same measures were 9.08 and 7.37.
For the compound `COC(=O)[C@@H]1CCCCN1Cc1cnc(C(=O)Nc2cccc(-c3cccc(NC(=O)c4cc(C5CC5)c(CN5CCCC[C@H]5C(=O)OC)cn4)c3C)c2C)cc1C1CC1` [Example 109, dimethyl 1,1′-(((((2,2′-dimethyl-[1,1′-biphenyl]-3,3′-diyl)bis(azanediyl))bis(carbonyl))bis(4-cyclopropylpyridine-6,3-diyl))bis(methylene))(2S,2′S)-bis (piperidine-2-carboxylate)], the pIC50 in test [1] was 6.43. Further, the negative-log EC50 (pEC50) in test [2] is less than 5.00.
For `Cc1c(NC(=O)c2cc(C3CC3)c(CN3CCCC[C@H]3C(=O)O)cn2)cccc1-c1cccc(NC(=O)c2cc(C3CC3)c(CN3CCCC[C@H]3C(=O)O)cn2)c1C` [Example 110, (2S,2′S)-1,1′-(((((2,2′-dimethyl-[1,1′-biphenyl]-3,3′-diyl)bis(azanediyl))bis (carbonyl))bis(4-cyclopropylpyridine-6,3-diyl))bis(methylene))bis(piperidine-2-carboxylic acid)] the same measures were 9.17 and 7.29.
`CCOC(=O)[C@@H](NCc1cnc(C(=O)Nc2cccc(-c3cccc(NC(=O)c4cc(C5CC5)c(CN[C@H](C(=O)OCC)[C@@H](C)O)cn4)c3C)c2C)cc1C1CC1)[C@@H](C)O` [Example 111, diethyl 2,2′-((((((2,2′-dimethyl-[1,1′-biphenyl]-3,3′-diyl)bis (azanediyl))bis(carbonyl))bis (4-cyclopropylpyridine-6,3-diyl))bis(methylene))bis(azanediyl)) (2S,2′S,3R,3′R)-bis(3-hydroxybutanoate)]: the pIC50 in test [1] is 7.10. Besides, the negative logarithm of the EC50 (pEC50) in test [2] is 5.23.
In the case of `Cc1c(NC(=O)c2cc(C3CC3)c(CN[C@H](C(=O)O)[C@@H](C)O)cn2)cccc1-c1cccc(NC(=O)c2cc(C3CC3)c(CN[C@H](C(=O)O)[C@@H](C)O)cn2)c1C` [Example 112, (2S,2′S,3R,3′R)-2,2′-((((((2,2′-dimethyl-[1,1′-biphenyl1]-3,3′-diyl)bis(azanediyl))bis(carbonyl))bis(4-cyclopropylpyridine-6,3-diyl))bis(methylene))bis(azanediyl))bis(3-hydroxybutanoic acid)], in test [1], the negative-log IC50 (pIC50) is 8.99. For the same compound, in test [2], the pEC50 was 7.46.
Taken in the same sequence, the figures for `Cc1c(NC(=O)c2cc(C3CC3)c(CN[C@H]3CCOC3=O)cn2)cccc1-c1cccc(NC(=O)c2cc(C3CC3)c(CN[C@H]3CCOC3=O)cn2)c1C` [Example 113] were 8.17 and 6.01.
For `Cc1c(NC(=O)c2cc(C3CC3)c(CN[C@@H](CCO)C(=O)O)cn2)cccc1-c1cccc(NC(=O)c2cc(C3CC3)c(CN[C@@H](CCO)C(=O)O)cn2)c1C` [Example 114, (2S,2′S)-2,2′-((((((2,2′-dimethyl-[1,1′-biphenyl]-3,3′-diyl)bis(azanediyl))bis(carbonyl))bis (4-cyclopropylpyridine-6,3-diyl))bis (methylene))bis(azanediyl))bis(4-hydroxybutanoic acid)] the same measures were 8.28 and 7.05.

(Values after patent US11459339B2, “Biaryl derivative, preparation method thereof and pharmaceutical application thereof” (Abbisko Therapeutics Co., Ltd., priority 2018, dated 2022).)
